Reference: patent publication US20250319078A1, “METHOD FOR SYNERGISTIC ENHANCEMENT OF REMYELINATION VIA MODULATION OF RXR AND A HETERODIMERIC PARTNER” (THE SCRIPPS RESEARCH INSTITUTE, priority 2022, published 2025)

How the values were obtained:
[1] = system: rat optic nerve derived OPCs; assay: cell-based OPC differentiation assay quantifying % MBP-positive OLs by immunofluorescence after 6 days of treatment; conditions: for activity in enhancing OPC differentiation alone: single agent, without RXR activation; for effect on % T3-induced MBP+OLs in combination with bexarotene (phenocopy of tasin-1, tamoxifen, LXR antagonist): heat maps, average n=3
Excerpt: Combination-based screening and evaluation of LXR modulators. Pairwise screening of bexarotene and partner compounds was done in matrices of 9-12 doses for each and transferred onto 3 separate 384-well plates. […] Heat maps were generated using Prism to highlight impact of the combinations relative to baseline controls.
We evaluated various reported inhibitors of CYP51, TM7SF2 and EBP for their ability to enhance bexarotene-induced remyelination. We quantified activity based on immunofluorescence analysis of % MBP+OLs after 6 days of compound treatment, with vehicle/DMSO, clemastine and triiodothyronine (T3) controls on each plate using rat optic nerve derived OPCs.

LXR = assay: confocal imaging and line profile analysis of LXR localization in OPCs/oligodendrocytes; assay type: cell-based; conditions: 6 days of treatment; immunofluorescence, confocal imaging
Protocol: Confocal imaging and analysis of LXR expression. […] OPCs were then seeded at a density of 1,000 cells per well, and the plates were incubated at 37° C. with 5% CO2 for 6 d. On day 6, cells were then fixed for 20 min with 4% formaldehyde solution and stained with anti-LXRalpha/beta antibody (cat. #sc-271064, Santa Cruz Biotechnology) in 3% BSA, 0.3% Triton X-100 with overnight incubation at 4° C. The cells were washed and incubated with secondary antibody (Alexa Fluor 488 goat anti-mouse IgG, Life Technologies) and Hoechst 33342 (Invitrogen) for 1 h at room temperature. The cells were washed and plates were sealed and imaged using a Cellomics Cell Insight imaging reader (Thermo). Randomly-selected fields from 6 wells selected at random were imaged at 50× magnification using a Zeiss 780 confocal microscope. 10 cells within images from each treatment group were randomly selected for line profile analysis.
A line profile analysis of fluorescent intensities was performed by drawing an 18.5 μm line through the center of individual cells (n=10), from approximately 2-4 microns beyond the nuclear membrane on each side using the Fiji image processing platform. Fluorescence intensities over distance (μm) was graphed using Prism 9 software (GraphPad).

[2] = 20 mg daily dose of tamoxifen; cited from earlier work
[3] = dose of bexarotene used in the CCMR One trial; read-out: predicted Cmax; cited from earlier work

## CC/C(=C(\c1ccccc1)c1ccc(OCCN(C)C)cc1)c1ccccc1 [tamoxifen]
[1]
  activity in enhancing OPC differentiation alone: minimally active
LXR
  localization of LXR following treatment: significant shift in localization of LXR
[2]
  steady state plasma concentration: 834 nM

## Cc1cc(C)c(S(=O)(=O)N(CCc2cccc(Br)c2)Cc2ccc(-c3cccc(S(C)(=O)=O)c3)cc2)c(C)c1 [SR9243]
[1]
  effect on % T3-induced MBP+OLs in combination with bexarotene (phenocopy of tasin-1, tamoxifen, LXR antagonist): phenocopies GSK2033, FFMAS, tasin-1 and tamoxifen

## CC(C)=CCC[C@@H](C)[C@H]1CC[C@H]2C3=C(CC[C@]12C)[C@@]1(C)CC[C@H](O)C[C@@H]1CC3 [Zymosterol]
[1]
  effect on % T3-induced MBP+OLs in combination with bexarotene (phenocopy of tasin-1, tamoxifen, LXR antagonist): phenocopies tasin-1, tamoxifen and LXR agonists

## C=C(c1ccc(C(=O)O)cc1)c1cc2c(cc1C)C(C)(C)CCC2(C)C [bexarotene]
[1]; bexarotene combined with tamoxifen
  cell-based OPC differentiation ECmax of bexarotene (concentration required to achieve optimal activity): ~150 nM
[3]
  Cmax: 2600 nM

## COc1ccc(S(=O)(=O)N2CCC(N3CCC(C)CC3)CC2)cc1 [tasin-1]
[1]
  activity in enhancing OPC differentiation alone: minimally active
LXR
  localization of LXR following treatment: significant shift in localization of LXR

## CC(C)=CCC[C@@H](C)[C@H]1CC=C2C3=C(CC[C@@]21C)[C@@]1(C)CC[C@H](O)C(C)(C)[C@@H]1CC3 [FF-MAS, Follicular fluid meiosis-activating sterol]
[1]
  effect on % T3-induced MBP+OLs in combination with bexarotene (phenocopy of tasin-1, tamoxifen, LXR antagonist): combines with bexarotene (RXRg agonist) to phenocopy tasin-1, tamoxifen, or an LXR antagonist
